Consider five compounds from US5328823A, “Enzyme-based biosensors for detecting noble gases” (American Air Liquide, priority 1992, dated 1994).

Assay [1] concerns Tyrosinase. In words: Gas biosensor diffusion cell, Tyrosinase/L-Tyrosine reaction monitored at 305 nm, Curlon Grade 861 film. The assay is classed as biochemical, Mushroom. The following applies: gas in upper chamber of diffusion cell, 25° C.; for maximum change in enzymatic activity, Reference Air: compared to air diffusion through the film; for maximum change in enzymatic activity, Reference Nitrogen: compared to nitrogen. The text has this:
Construction consists of coupling two 1-cm lightpath UV grade methacrylate covets with a ring of 100% silicone rubber (General Purpose Sealant, Dow Corning) applied on their outside rim. Before sealing with silicone, a 1-cm^2 square of a polymeric film of known permeabilities to the different gases is placed between the two cuvettes. Holes have been previously drilled in each covet (drill bit 7/64") to receive a septum (d=3 mm; h=8 mm; Supelco No. 3-3301M). 100% silicone rubber was applied around the septa to avoid possible leaks.
Tyrosinase/L-Tyrosine monitored at 305 nm
Enzyme: Tyrosinase (SIGMA No. T-7755) (Monophenol monooxygenase; Polyphenol oxidase; Catechol oxidase; Monophenol, dihydroxyphenylalanine: oxygen oxidoreductase; From Mushroom
Chamber 1 (upper) is flushed for 2 […] with 100% nitrogen (very low flow to prevent tearing of the polymeric film: line delivery pressure <5 psi) at ambient temperature (25° C.), using 22G11/2 needles (small gauge to reduce risks of leakage through holes in septa).
Chamber 2 (lower) is flushed in the same way as chamber 1.
Chamber 2 is then filled with 2.0 ml of N2 -saturated solution C, by means of a 3 cc syringe (previously purged with N2).
Before the spectrophotometric run, 20 cc of the appropriate gas (Air, N2, Ar, Kr, Xe) is passed through chamber 1 of each of the 3 diffusion cells simultaneously, by means of a 30 cc syringe.
Following immediately, the run starting time t0 is given by the simultaneous injections of 0.5 ml of N2 -saturated-solution B in chamber 2 of each diffusion cell. The 1 cc syringes used for sampling the 0.5 ml are previously purged with N2.
A selected example is given below for one of the enzymatic system/polymeric film tandems assayed. Given as well is the maximum change in enzymatic activity noted compared to the reaction resulting from air diffusion through the film, or compared to nitrogen. A sample graphic data output file is appended.
Polymeric film insert in diffusion cells: Curlon Grade 861 (CURWOOD).
Biochemical reaction (monitored at 305 nm): Tyrosinase/L-Tyrosine at 25° C. and optimal reaction conditions, gas in upper chamber of the diffusion cell being: […]

In assay [2] the test system is β-D-Glucosidase. In words: β-D-Glucosidase/p-Nitrophenyl-β-D-Glucopyranoside biosensing bag (PE 2 mil) in gas-packaged produce, rate of yellow colour change. The assay is classed as biochemical, Almonds. The following applies: packaged vegetables, compared with nitrogen packaged produce; acceleration rather than inhibition. The text has this:
The above mentioned hydrolase system (β-D-Glucosidase/p-Nitrophenyl-β-D-Glucopyranoside) is placed inside a 3 cc bag by heat-sealing of the polymeric film used in protocol described above (PE 2 mil).
The protocol followed is the same as described in the third detailed example of the invention, except for the fact that the colorigenic reaction observed is yellow, and is an acceleration rather than an inhibition. Thus, Kr packaged vegetables will produce a yellow color change in the device faster than will nitrogen packaged produce.

Assay [3] relates to Tyrosinase. In words: Tyrosinase/L-tyrosine biosensing bag (Curlon Grade 861) placed in gas-packaged food packages, rate of colour change. It counts as biochemical, Mushroom. The text has this:
The above mentioned oxido-reductase system (tyrosinase/L-tyrosine) is placed inside a 3 cc bag by heat-sealing of the polymeric film used in protocol described above (Curlon Grade 861, Curwood).
The 3 cc bag is placed into a series of packages containing food products under different gas mixtures, which include neon, argon, krypton, xenon, oxygen, nitrogen and carbon dioxide. The relative rate of changing color of the device, that is the development of a pink-brown color, is monitored over time.
A similar series is run, but after holes have been punctured in the packages to simulate leaks. The rate of changing color is then monitored. Thus we have made a leak detection system.
In the same manner, the exchange of gases through the film of the packages and the change in respiration of fresh horticultural commodities can also be monitored. […] Preparation of a standard curve permits detection of each type of gas mix relative to the other, and also permits detection of a change in oxygen level caused by vegetable respiration.

For assay [4] the following is noted: per atmosphere of added nitrous oxide; independent of oxygen partial pressure; cited from earlier work.
In assay [5] the test system is particulate sialidase. The following applies: highly impure enzymes; the patent calls these results questionable; cited from earlier work.

On to `[Kr]` [Kr, krypton], for which, in assay [1], the “maximum change in enzymatic activity, Reference Air” value (shortened to “maximum change … Reference Air”) was -35% and the “maximum change in enzymatic activity, Reference Nitrogen” value (from here on “maximum change … Reference Nitrogen”) is -32%. In assay [2], the “rate of yellow color change in the device” value is “faster”. The “rate of changing color of the biosensing device, case of a leak” value in assay [3] (package under 100% gas, compared with 100% N2) is recorded as “turns color more slowly”.

Consider `[N-]=[N+]=O` [nitrous oxide], for which, in assay [4], the “inhibition per atmosphere of added gas” value is on record as 1.9%. Also, in assay [5], the “effect on activity of particulate sialidase” value (from here on “effect on activity”) is “enhance the activity”.

Take `[Xe]` [Xe, xenon]: in assay [1], the “maximum change … Reference Air” value is reported as -30% and the “maximum change … Reference Nitrogen” value is on record as -26%. The “effect on activity” value in assay [5] was “enhance the activity”.

In the case of `[Ar]` [Ar, argon], in assay [1], the “maximum change … Reference Air” value is on record as -25% and the “maximum change … Reference Nitrogen” value is -21%. For the same compound, in assay [3] (packaged vegetables, compared with the package under 100% N2), the “rate of changing color of the biosensing device (pink-brown)” value is on record as “turns color more slowly”.

As for `FC(F)(F)C(Cl)Br` (stereo not shown) [halothane], the “effect on activity” value in assay [5] is “enhance the activity”.
